Assay results reported in patent publication US11254686B1 (Corvus Pharmaceuticals, Inc., priority 2017, dated 2022).
pIC50: −log10 of the molar value.

Assays:
[1] = Hepatocyte (Hep) intrinsic clearance, human; format: in vitro ADME; conditions: hepatocytes
adenosine A2A receptor = adenosine A2A receptor (Homo sapiens (Human), UniProt P29274); assay: Adenosine receptor activity assay (Table 1), A2A activity; format: biochemical; conditions: read-out: Ave A2A cAMP IC50
adenosine A2B receptor = adenosine A2B receptor (Homo sapiens (Human), UniProt P29275); assay: Adenosine receptor activity assay (Table 1), A2B activity; format: biochemical; conditions: for Ratio: A2A activity to A2B activity (A2A/A2B); for pIC50: read-out: Ave A2B cAMP IC50
adenosine A2B receptor, sequence (P29275 whole entry): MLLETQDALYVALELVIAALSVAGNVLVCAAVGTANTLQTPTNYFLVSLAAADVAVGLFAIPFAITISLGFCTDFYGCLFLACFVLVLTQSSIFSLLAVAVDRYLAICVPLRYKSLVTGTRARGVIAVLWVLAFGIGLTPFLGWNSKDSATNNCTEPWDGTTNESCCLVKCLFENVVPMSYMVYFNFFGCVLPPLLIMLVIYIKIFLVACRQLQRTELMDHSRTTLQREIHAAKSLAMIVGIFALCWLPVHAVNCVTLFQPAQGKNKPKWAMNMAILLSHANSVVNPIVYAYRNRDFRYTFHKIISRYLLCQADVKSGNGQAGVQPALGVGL

adenosine A3 receptor = adenosine A3 receptor (Homo sapiens (Human), UniProt P0DMS8); assay: A3 cAMP IC50 assay (Table 1); format: biochemical
adenosine A3 receptor, sequence (P0DMS8 whole entry): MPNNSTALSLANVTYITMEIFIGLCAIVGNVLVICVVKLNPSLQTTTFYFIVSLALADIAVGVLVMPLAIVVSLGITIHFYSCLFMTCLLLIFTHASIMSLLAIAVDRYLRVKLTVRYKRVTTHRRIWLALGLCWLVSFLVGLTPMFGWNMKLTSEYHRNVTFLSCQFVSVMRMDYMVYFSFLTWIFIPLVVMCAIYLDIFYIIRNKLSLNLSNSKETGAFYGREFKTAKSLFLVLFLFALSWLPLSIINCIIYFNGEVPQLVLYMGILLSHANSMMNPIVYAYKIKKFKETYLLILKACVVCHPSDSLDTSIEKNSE

CYP3A4 = CYP3A4 (Homo sapiens (Human), UniProt P08684); assay: CYP450 inhibition at 10 μM, CYP3A4; format: in vitro ADME; conditions: human, 10 μM, read-out: CYP 450 % INH @ 10 μM
CYP3A4, sequence (P08684 whole entry): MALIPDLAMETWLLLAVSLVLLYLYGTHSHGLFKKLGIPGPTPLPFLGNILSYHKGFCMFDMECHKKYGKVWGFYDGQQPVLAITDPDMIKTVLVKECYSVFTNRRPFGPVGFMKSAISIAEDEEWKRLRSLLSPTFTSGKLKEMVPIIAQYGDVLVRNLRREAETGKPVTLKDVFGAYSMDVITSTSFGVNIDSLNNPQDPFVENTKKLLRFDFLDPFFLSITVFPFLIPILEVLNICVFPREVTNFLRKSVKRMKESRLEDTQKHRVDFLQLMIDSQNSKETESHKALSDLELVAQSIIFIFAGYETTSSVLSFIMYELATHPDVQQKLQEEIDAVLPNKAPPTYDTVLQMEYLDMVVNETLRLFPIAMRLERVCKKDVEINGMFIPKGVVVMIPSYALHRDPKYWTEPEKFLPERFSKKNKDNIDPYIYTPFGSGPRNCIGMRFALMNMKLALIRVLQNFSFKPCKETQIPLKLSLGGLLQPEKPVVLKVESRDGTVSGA

[2] = Liver microsome (LM) intrinsic clearance, human; format: in vitro ADME
CYP2D6 = CYP2D6 (Homo sapiens (Human), UniProt P10635); assay: CYP450 inhibition at 10 μM, CYP2D6; format: in vitro ADME; conditions: read-out: CYP 450 % INH @ 10 μM
CYP2D6, sequence (P10635 whole entry): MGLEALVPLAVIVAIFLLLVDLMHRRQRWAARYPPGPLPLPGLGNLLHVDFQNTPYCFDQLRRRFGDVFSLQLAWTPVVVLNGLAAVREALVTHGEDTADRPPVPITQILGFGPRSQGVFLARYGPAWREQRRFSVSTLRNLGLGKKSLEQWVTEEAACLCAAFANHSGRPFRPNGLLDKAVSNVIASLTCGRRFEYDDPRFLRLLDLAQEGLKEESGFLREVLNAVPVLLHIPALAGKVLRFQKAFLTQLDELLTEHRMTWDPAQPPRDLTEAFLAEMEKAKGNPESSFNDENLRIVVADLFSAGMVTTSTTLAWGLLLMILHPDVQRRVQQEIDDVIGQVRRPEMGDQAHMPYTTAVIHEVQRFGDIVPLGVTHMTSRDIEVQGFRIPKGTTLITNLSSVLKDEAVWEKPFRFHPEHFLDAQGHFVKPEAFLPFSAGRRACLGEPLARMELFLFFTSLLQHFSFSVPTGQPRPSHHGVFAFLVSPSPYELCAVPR

[3] = Hepatocyte (Hep) intrinsic clearance, rat; format: in vitro ADME; conditions: hepatocytes
[4] = Liver microsome (LM) intrinsic clearance, rat; format: in vitro ADME
adenosine A1 receptor = adenosine A1 receptor (Homo sapiens (Human), UniProt P30542); assay: A1 cAMP IC50 assay (Table 1); format: biochemical
adenosine A1 receptor, sequence (P30542 whole entry): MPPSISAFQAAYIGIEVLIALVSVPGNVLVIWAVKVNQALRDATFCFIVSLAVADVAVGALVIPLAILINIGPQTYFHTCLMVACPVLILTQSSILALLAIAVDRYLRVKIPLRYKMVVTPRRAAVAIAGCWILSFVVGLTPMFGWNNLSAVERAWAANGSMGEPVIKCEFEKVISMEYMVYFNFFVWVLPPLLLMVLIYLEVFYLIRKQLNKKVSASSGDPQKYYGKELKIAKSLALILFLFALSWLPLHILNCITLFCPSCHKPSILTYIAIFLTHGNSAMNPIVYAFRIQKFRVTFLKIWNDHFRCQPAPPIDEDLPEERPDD

adenosine A2A receptor, sequence (P29274 whole entry): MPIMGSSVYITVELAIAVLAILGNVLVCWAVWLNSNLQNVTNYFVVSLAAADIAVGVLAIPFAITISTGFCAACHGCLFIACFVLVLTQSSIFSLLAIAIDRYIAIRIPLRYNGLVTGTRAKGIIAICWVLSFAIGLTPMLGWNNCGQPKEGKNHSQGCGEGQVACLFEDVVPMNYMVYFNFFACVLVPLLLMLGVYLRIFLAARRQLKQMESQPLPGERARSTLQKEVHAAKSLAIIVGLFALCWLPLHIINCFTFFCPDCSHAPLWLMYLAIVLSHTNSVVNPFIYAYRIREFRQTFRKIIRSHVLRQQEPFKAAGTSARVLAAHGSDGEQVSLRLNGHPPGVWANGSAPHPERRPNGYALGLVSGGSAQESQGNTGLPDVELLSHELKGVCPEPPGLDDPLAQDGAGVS

| Structure (SMILES) | hepatocyte CLint [1] [µL/min/1e6 cells] | pIC50 (adenosine A2A receptor) | Ratio (adenosine A2B receptor) | pIC50 (adenosine A2B receptor) | pIC50 (adenosine A3 receptor) | inhibition at 10 µM (CYP3A4) [%] | LM CLint [2] [μL/min/mg/protein] | inhibition at 10 µM (CYP2D6) [%] | hepatocyte CLint [3] [µL/min/1e6 cells] | LM CLint [4] [μL/min/mg/protein] | pIC50 (adenosine A1 receptor) |
| --- | --- | --- | --- | --- | --- | --- | --- | --- | --- | --- | --- |
| COc1ccc(CNC(=O)c2nc(N[C@@H](C)c3ccccn3)nc3ccsc23)cn1 [Example Z16, (S)—N-((6-Methoxypyridin-3-yl)methyl)-2-((1-(pyridin-2-yl)ethyl)amino)thieno[3,2-d]pyrimidine-4-carboxamide] | 14.5 | 7.00 to 7.30 | 1.67 | 7.30 to 8.00 | < 6.30 | 46 | 17.68 | 13 | 58.6 | 32.42 | < 6.30 |
| C[C@H](Nc1nc(C(=O)N2CC[C@@H](F)C2)c2sccc2n1)c1cccnc1 [Example Z8, ((R)-3-Fluoropyrrolidin-1-yl)(2-(((S)-1-(pyridin-3-yl)ethyl)amino)thieno[3,2-d]pyrimidin-4-yl)methanone] | 7.75 | 6.30 to 7.00 | 7.83 | 7.30 to 8.00 | < 6.30 | 74 | 17.06 | 41 | 47.6 | 20.43 | < 6.30 |
| C[C@H](NC(=O)c1nc(N[C@@H](C)c2ccccn2)nc2ccsc12)c1ccccn1 [Example Z54, N—((S)-1-(Pyridin-2-yl)ethyl)-2-(((S)-1-(pyridin-2-yl)ethyl)amino)thieno[3,2-d]pyrimidine-4-carboxamide] | 24.9 | 7.30 to 8.00 | 1.42 | 7.30 to 8.00 | 7.00 to 7.30 | 38 | 14.10 | 3 | 126 | 39.84 | < 6.30 |
| C[C@H](Nc1nc(C(=O)N2CC(F)(F)C2)c2sccc2n1)c1cccnc1 [Example Z32, (S)-(3,3-Difluoroazetidin-1-yl)(2-((1-(pyridin-3-yl)ethyl)amino)thieno[3,2-d]pyrimidin-4-yl)methanone] | 63.2 | 6.30 to 7.00 | 6.64 | 7.30 to 8.00 | < 6.30 | 49 | 51.28 | 7 | 76.2 | 33.25 | < 6.30 |
| C[C@H](Nc1nc(C(=O)N2CC[C@H](F)C2)c2sccc2n1)c1cccnc1 [Example Z9, ((S)-3-Fluoropyrrolidin-1-yl)(2-(((S)-1-(pyridin-3-yl)ethyl)amino)thieno[3,2-d]pyrimidin-4-yl)methanone] | 11.4 | 7.00 to 7.30 | 2.55 | 7.30 to 8.00 | – | 71 | 15.83 | 20 | 70.1 | 28.41 | – |
| C[C@H](Nc1nc(C(=O)N2CC[C@H](F)C2)c2sccc2n1)c1ccccn1 [Example Z53, ((S)-3-Fluoropyrrolidin-1-yl)(2-(((S)-1-(pyridin-2-yl)ethyl)amino)thieno[3,2-d]pyrimidin-4-yl)methanone] | 10.9 | 7.00 to 7.30 | 7.15 | > 8.00 | – | 10 | 13.51 | 0 | 42.7 | 14.92 | – |

Continued, values first:

| hepatocyte CLint [1] [µL/min/1e6 cells] | pIC50 (adenosine A2A receptor) | Ratio (adenosine A2B receptor) | pIC50 (adenosine A2B receptor) | pIC50 (adenosine A3 receptor) | inhibition at 10 µM (CYP3A4) [%] | LM CLint [2] [μL/min/mg/protein] | inhibition at 10 µM (CYP2D6) [%] | hepatocyte CLint [3] [µL/min/1e6 cells] | LM CLint [4] [μL/min/mg/protein] | pIC50 (adenosine A1 receptor) | Structure (SMILES) |
| --- | --- | --- | --- | --- | --- | --- | --- | --- | --- | --- | --- |
| 23.5 | 6.30 to 7.00 | 4.99 | 7.30 to 8.00 | < 6.30 | 82 | 53.26 | 22 | 131 | 81.23 | < 6.30 | C[C@@H]1CCN(C(=O)c2nc(N[C@@H](C)c3cccnc3)nc3ccsc23)C1 [Example Z34, ((R)-3-Methylpyrrolidin-1-yl)(2-(((S)-1-(pyridin-3-yl)ethyl)amino)thieno[3,2-d]pyrimidin-4-yl)methanone] |
| 15.4 | 6.30 to 7.00 | 84.42 | > 8.00 | < 6.30 | 38 | 33.16 | 10 | 44.9 | 44.58 | < 6.30 | O=C(c1nc(NCc2cncc(F)c2)nc2ccsc12)N1CCC1 [Example Z61, Azetidin-1-yl(2-(((5-fluoropyridin-3-yl)methyl)amino)thieno[3,2-d]pyrimidin-4-yl)methanone] |
| 25.6 | < 6.30 | 127.22 | 7.30 to 8.00 | < 6.30 | 76 | 63.74 | 19 | 64.7 | 94.74 | < 6.30 | Cc1cncc(CNc2nc(C(=O)N3CCC3)c3sccc3n2)c1 [Example Z55, Azetidin-1-yl(2-(((5-methylpyridin-3-yl)methyl)amino)thieno[3,2-d]pyrimidin-4-yl)methanone] |
| 49 | < 6.30 | 5.23 | 7.30 to 8.00 | – | 79 | 126.01 | 32 | 149 | 129.90 | – | Cc1cncc(CNc2nc(C(=O)N3CCCC3)c3sccc3n2)c1 [Example Z50, (2-(((5-Methylpyridin-3-yl)methyl)amino)thieno[3,2-d]pyrimidin-4-yl)(pyrrolidin-1-yl)methanone] |
| 22.8 | 6.30 to 7.00 | 66.23 | > 8.00 | < 6.30 | 65 | 34.26 | 11 | 63.1 | 46.03 | < 6.30 | O=C(c1nc(NCc2cncc(F)c2)nc2ccsc12)N1CC[C@@H](F)C1 [Example Z60, (R)-(2-(((5-Fluoropyridin-3-yl)methyl)amino)thieno[3,2-d]pyrimidin-4-yl)(3-fluoropyrrolidin-1-yl)methanone] |
| 9.27 | 6.30 to 7.00 | 31.36 | > 8.00 | < 6.30 | 66 | 23.61 | 38 | 37.7 | 27.86 | < 6.30 | C[C@H](Nc1nc(C(=O)N2CCC2)c2sccc2n1)c1cccnc1 [Example Z2, (S)-Azetidin-1-yl(2-((1-(pyridin-3-yl)ethyl)amino)thieno[3,2-d]pyrimidin-4-yl)methanone] |
